Measured values from patent publication US7282215B2, “Supports for photosensitizer formulations” (The University of British Columbia, priority 2000, dated 2007).
Where two headings read alike, the source gives them in different places. Marks after values point to notes of the source that are not given here. Blank lines part the entries; values can stand above or below the molecule they belong to.

How the values were obtained:
[1] = Drug loading of liposomal versus 10% P123 formulations; format: physicochemical; conditions: prepared at 2 mg/ml; for Drug loading, P123: Pluronic P123 10% weight/volume; for Drug loading, Liposome: liposomal formulation
Experimental: 5 mg drug and lipids (40% EPG in DMPC) are combined in CH2Cl2 at a drug to lipid ratio of 1:10 w/w in 250 ml round bottom flask. The maximum concentration of drug in solvent is 2 mg/ml. CH2Cl2 is removed rapidly as described in Example 5. The resulting thin film is hydrated with 2.5 ml lactose solution (9.5% w/v) using hand swirling with glass beads at 40° C. Extrusion using Model 4T (Lipex Biomembranes Inc. B.C., Canada) is carried out with the thermostat set at 40° C. The multilamellar vesicles (MLVs) arising from hydration steps of the liposomal formulation were also examined under the microscope. MLVs are successively extruded 5 times through each of the 400 nm, 200 nm and 100 nm polycarbonate membranes (Nuclepore PC, Costar). Extruded samples were diluted 1:100 in PBS (pH 7.4) and the absorbance determined at 690 nm wavelength.
In this experiment liposomal and block copolymer (micellar) photosensitizer formulations of A- and B-ring compounds of EA6 and B3 were compared. Each of the photosensitizer samples was prepared at a final drug concentration of 2 mg/ml. The block copolymer P123, and the liposomal formulations were prepared as described in the Examples 5 and 6, respectively.

[2] = Vesicle size of liposomal A-EA6 after microfluidization; format: physicochemical; conditions: for Size: 10 mL batch
Experimental: MLVs obtained from each of the conventional and micro-thin films of EA6-A in 3% w/w DMPG/DMPC prepared in Example 24 were introduced into the reaction chamber of a small microfluidizer (23 ml capacity; M110S, Microfluidics). […] The reaction chamber was immersed in ice, with the pressure transducer (Dynisco μPR 690) setting adjusted to 10,000 psi.
Use of the microfluidizer required priming the system with 9.2% lactose. The dead volume retained was considerably higher than stated in the manual, and as a result, only ˜2 mL of undiluted sample was recovered after the first pass in each case. […] Processing was carried out for a total of 6 passes, with 200 μl samples being removed for particle sizing following every pass. Due to limited recovery and dilution of the above samples, 2 larger batches (20 mL) were prepared using the conventional thin film process, and microfluidized with a total of 5 passes. To avoid excessive dilution of the unilammelar vesicles, recovery was limited to 8 mL.
Microfluidisation was repeated with larger volumes of 20 mL. […] The final concentration of A-EA6 in both batches (HH02-5 A and HH02-5 B) was 1.5 mg/mL. These samples were processed with the microfluidiser in a hot water bath at 45° C. instead of ice to prevent suspension temperature falling below the phase transition of DMPC in between passes. Size determination was carried out by laser light scattering on a NICOMP™ 370 Submicron Particle Sizer.

[3] = Liposomal drug release to FBS by fluorescence (Ffbs/Ftx); format: in vitro ADME, bovine; conditions: 37° C., n=2
Experimental: This experiment test drug release from micro-thin film preparations and conventional thin film vesicles (76 nm and 98 nm) produced in Example 25. The assay was carried out using an Aminco-Bowman 2 Fluorescence Spectrometer. It has previously been observed in the liposomal photosensitizer formulations that the fluorescence from the photosensitizer drug is quenched due to the high ratio of drug to lipid present. […] Fluorescence signal from liposomal suspensions is therefore low, and increases only when the drug leaves the bilayer for an alternative binding site.
The increase in fluorescence signal reflects liposomal drug transfer in proportion to the rate and extent of transfer to added serum components.
The liposomal suspension is diluted with 5% Dextrose to give an absorbance of 0.1 at the excitation wavelength (430 nm). […] 100 μl of FBS is added to the cuvette, and increase in fluorescence is monitored (following a quick couple of inversions) over 2-3 min if necessary. Once a steady level is achieved (noted as Ffbs), the liposomal system is disrupted using 0.05% v/v Triton X-100 to get a 100% drug level. The maximum fluorescence level is noted as Ftx. The ratio of Ffbs/Ftx gives an estimation of liposomal drug release, and is highly reproducible (SD ˜0-2% for n=5). Reported release results are based on 2-5 repeat assays depending on instrumental stability.

[4] = Vesicle size of liposomal A-EA6 after microfluidization; format: physicochemical
L1210 cells = test: In vitro phototoxicity (MTT assay after light exposure); format: cell-based
Experimental: Exposure to drugs was carried out in the presence and absence of fetal calf serum (FCS) as a model to study transfer of drug to cells in vivo. […] A suspension of L1210 cells was prepared and exposed to various drug formulations (drug concentrations ranging from 0-50 ng/ml) either in the absence or presence of 10% fetal calf serum (FCS). One hour later, the drug was removed by pelleting the cells by centrifugation. The pellet was briefly washed with 1 ml DME and resuspended in 5% FCS/DME. 100 μl of the cell suspension was aliquoted into 6 wells of a 96 well plate, and the plate exposed to light at 10 J/cm^2. Viability was determined 24 h post exposure using the MTT assay (Mosmann, J. Immunol. Meth. 65:55-63, 1983).

[5] = system: M1 rhabdomyosarcoma tumor; test: PDT tumor recurrence in tumor mouse model; format: in vivo, DBA/2 mouse; set-up: key to Percent (%) Mice Tumor Free: Mice suffered from phototoxic (PT) reaction at the site of light exposure and were subsequently euthanized
Experimental: Photosensitizer formulations were prepared in 10% w/v Pluronics as described in Example 4. BPD-MA was formulated in F127. B-ring compounds B-EA6 and B-B3, were prepared in P123 due to insufficient drug loading in F127. Liposomal BPD-MA formulation was Verteporfin™ and B-ring compounds were formulated in the same lipid composition. Where DMSO/plasma preparations were made, the DMSO dissolved drug was added directly to mouse plasma and the drug association with different plasma components was observed.
In these experiments the tumor model used was the DBA/2 mouse (males) inoculated intradermally with M1 rhabdomyosarcoma tumor cells (M1, ATCC. When tumors reached a diameter of 4-6 mm, the mice (n=10, unless other wise stated) were treated with photodynamic therapy (PDT). PDT involved intravenous injection of the formulated drug in 0.2 mL volume of PBS. This was followed by exposure of the tumor region to laser light (Argon pumped dye laser (5W), 690 nm, 50J/cm2) 15 min later. Animals were then monitored for tumor recurrence over a 20 day period post treatment.

[6] = pH studies of copolymer formulations; format: physicochemical; conditions: acidification
Source text: Counteracting the oily nature of P123 could be achieved by incorporation of copolymer that is in solid form at room temperature. The use of 1% w/w F127 with 9% w/v P123 instead of 10% P123 (w/v) produced a thin film, which was more readily hydrated. […] This necessitates hydration of the solid drug-polymer with a very mild buffer to counteract acidification which occurs upon use of sterile packed distilled water as commonly practiced in clinical settings. Behavior of poloxamers is unaffected by pH, and the use of buffers would be entirely dependent on ionizable groups present on the drug substance.

[7] = JM4 at 2 mg/ml, after overnight storage and centrifugation
Experimental: 1 to 2 mg drug and 25-100 mg Pluronic are combined in methylene dichloride (CH2Cl2) to yield drug concentration of 1 mg/ml. CH2Cl2 is removed rapidly by rotary evaporation (Rotavapor R-124, Bucchi B172 Vacobox pump) at 50°, at maximum speed of rotation. Once a steady minimum pressure is achieved, the flask is held under vacuum for a further 20-30 min. […] Samples are kept overnight at room temperature to allow unincorporated drug to fall out, and then spun at 14,000 rpm {Eppendorff, Microfuge} for 30 min. Supernatant is decanted off into a fresh Eppendorff vial, and diluted 1:100 in the iso-osmolar medium used for thin film hydration (PBS or lactose) for determination of absorbance 690 nm (A690). Formulations are stored at 4° C. or frozen at −20° C. for long term storage.
In this experiment the following three selected dihydroxychlorins were examined for formulation with 10% P123. Each of the drugs was prepared to a final concentration level of 1 mg/ml and the formulation protocol used is described in Example 5. These compounds were prepared as described in U.S. patent application Ser. Nos. 09/551,159 and 09/551,160, both filed Apr. 14, 2000, and No. 60/129,324, filed Apr. 14, 1999, all three of which are hereby incorporated by reference as if fully set forth. One of these compounds, JM4, was further tested for drug incorporation using 2.5 to 10% P123.

SMILES: C=Cc1c(C)c2cc3nc(cc4[nH]c(cc5nc(cc1[nH]2)C(C)=C5CCC(=O)OC)c(CCC(=O)OC)c4C)C1(C)C3=CC=C(C(=O)O)C1C(=O)OC (stereo not drawn) [A-B3]
Drug loading, P123 [1]: 1.33 mg/mL
Drug loading, Liposome [1]: 1.84 mg/mL

SMILES: C=Cc1c(C)c2cc3nc(cc4[nH]c(cc5nc(cc1[nH]2)C(C)=C5CCC(=O)OCCO)c(CCC(=O)OCCO)c4C)C1(C)C3=CC=C(C(=O)OC)C1C(=O)OC (stereo not drawn) [A-EA6, Diethyleneglycol Ester A-ring]
Drug loading, P123 [1]: 1.82 mg/mL
Drug loading, Liposome [1]: 0.98 mg/mL
Size ([2]; conventional thin film, pass 3): 81 + 21^2 nm
Size ([2]; conventional thin film, pass 4): 63 nm
Size ([2]; conventional thin film, pass 5): 66 nm
Size ([2]; conventional thin film, pass 6): 63 nm
Mean vesicle size ([2]; conventional thin film, 20 mL, after the first pass): 98 nm
Size ([2]; micro-thin film, pass 1): 141 + 54^2 nm
Size ([2]; micro-thin film, pass 2): 62 nm
Size ([2]; micro-thin film, pass 3): 67 nm
Size ([2]; micro-thin film, pass 4): 59 nm
Size ([2]; micro-thin film, pass 5): 60 nm
Size ([2]; micro-thin film, pass 6): 57 nm
Vesicle size ([2]; microfluidized, 10 mL volume): ~60 nm
Drug release from liposomal formulation to 5% FBS ([3]; micro-thin film batch): 72%
Drug release from liposomal formulation to 5% FBS ([3]; thin film batch): 67%
Vesicle size ([4]; final extrusion through 100 nm filters): 100-110 nm
Mean vesicle size ([4]; micro-thin film, 20 mL, after the first pass): 76 nm

SMILES: C=Cc1c(C)c2cc3nc(cc4[nH]c(cc5nc(cc1[nH]2)C1(C)C5=CC=C(C(=O)OC)C1C(=O)OC)c(C)c4CCC(=O)OCCO)C(CCC(=O)OCCO)=C3C (stereo not drawn) [B-EA6]
Drug loading, P123 [1]: 0.37 mg/mL
Drug loading, Liposome [1]: 0.06 mg/mL
LD50 (L1210 cells; Carrier Copolymer (P123), +FCS (10%)): 12.9* ng/ml
LD50 (L1210 cells; Carrier Copolymer (P123), −FCS): 2.06* ng/ml
LD50 (L1210 cells; Carrier DMSO, +FCS (10%)): 20.0 ng/mL
LD50 (L1210 cells; Carrier DMSO, −FCS): 4.7 ng/mL
LD50 (L1210 cells; Carrier Liposomal, +FCS (10%)): 19.7 ng/mL
LD50 (L1210 cells; Carrier Liposomal, −FCS, 1 h drug, light 10 J/cm^2, MTT 24 h): 4.7 ng/mL
Reaction at the irradiated site ([5]; 1 mg/kg, formulated in P123, tumor bearing mice): strong phototoxic reaction (edema)
Percent (%) Mice Tumor Free ([5]; Liposomal, 1.0 mg/kg i.v., 690 nm 50J/cm2 15 min later, Day 7): 90%
Percent (%) Mice Tumor Free ([5]; Liposomal, 1.0 mg/kg, Day 14): 70%
Percent (%) Mice Tumor Free ([5]; Liposomal, 1.0 mg/kg, Day 20): 60%
Percent (%) Mice Tumor Free ([5]; Pluronic P123, 0.5 mg/kg, Day 7): 80%
Percent (%) Mice Tumor Free ([5]; Pluronic P123, 0.5 mg/kg, Day 14): 60%
Percent (%) Mice Tumor Free ([5]; Pluronic P123, 0.5 mg/kg, Day 20): 40%
Percent (%) Mice Tumor Free ([5]; Pluronic P123, 1.0 mg/kg, Day 7): PT^1
Percent (%) Mice Tumor Free ([5]; Pluronic P123, 1.0 mg/kg, Day 14): PT^1
Percent (%) Mice Tumor Free ([5]; Pluronic P123, 1.0 mg/kg, Day 20): PT^1
pH dependency of formulation stability [6]: does not display any pH-dependency

Incorporation ([7]; P123 2.5% w/v): 0.92 mg/mL
Incorporation ([7]; P123 5% w/v): 1.43 mg/mL
Incorporation ([7]; P123 10% w/v): 2.00 mg/mL
SMILES: Cc1ccc(-c2c3nc(c(-c4ccc(C)cc4)c4ccc([nH]4)c(-c4ccc(C)cc4)c4nc(c(-c5ccc(C)cc5)c5ccc2[nH]5)C(O)C4O)C=C3)cc1 (stereo not drawn) [JM4, 5, 10, 15, 20-tetra (para-methyl phenyl)-2,-3-dihydroxychlorin]
